# According to PMC13081163, “Discovery of a novel Nrf2 activator that modulates mitochondrial function in neurons by regulating DHRS3-Nrf2 interaction after ischemic stroke” (Theranostics, 2026):
# Like-named read-outs stand apart in the source and are kept apart here.
# Experiments:
# [1] = Pharmacokinetics in male rats (LC-MS/MS); assay type: in vivo; conditions: SD, rat, plasma
# tMCAO rats = test: Long-term recovery after tMCAO (survival, body weight, behaviour); assay type: in vivo, rat; conditions: 5 mg/kg tail vein injection for 7 d
# Protocol: To assess the degree of neurological impairment, we conducted modified Neurological Severity Score (mNSS) according to previous experience. The investigator was blinded to the grouping situation during the whole experiment.
# On postoperative day 3 two wooden boards of identical size were joined at a 30° angle, with a narrow gap retained at the junction. The rat was positioned facing the apex of the angle. When it advanced into the deeper part of the angle, bilateral whisker contact with the boards triggered a characteristic rearing response, followed by a turn to face the opposite direction. Each rat underwent 15 trials, and the number of right turns was recorded. The higher the right-turn ratio, the more severe the injury.
# Rats were placed on a horizontal, stainless steel wire grid. The grid was then smoothly rotated 180 degrees to an inverted position and held stationary at a height of 0.8 m. A stopwatch was started immediately upon inversion to measure the latency to fall. The test was terminated if the animal remained on the grid for 60 s, at which point it was gently returned to its home cage, and a score of 60 s was recorded.
# The Y-maze apparatus consisted of three symmetrically arranged enclosed arms (typically labeled Arms A, B, and C), each positioned 120° apart. At the start of each trial, the subject was placed in Arm A and allowed to move freely through the maze for 8 min. Spatial working memory was evaluated by calculating the spontaneous alternation rate, using the following formula:
# Following a 2 h acclimation period, the rats were within an open field cubic box (100 × 100 × 40 cm^3) and allowed 5 min of unrestricted movement. The travel distance and the time spent in the central area were recorded.
# The spatial learning and memory of rats were assessed using the Morris water maze (MWM) from post-operative days 23 to 26. Over four consecutive days, animals underwent training trials in which they were required to locate a submerged escape platform within 60 s. Each rat was gently placed into the water facing the pool wall. If the rat found the platform and remained on it for 10 s, the escape latency was recorded. If the platform was not found within 60 s, the rat was guided onto it and allowed to stay for 10 s, and the latency was recorded as 60 s. Following the training phase, the platform was removed, and a visual spatial memory test lasting for 60 s was conducted to assess the retention of memory. The number of platform-location crossings and the time spent in the target quadrant were recorded and analyzed.
# SH-SY5Y cells = test: Protection against OGD/R damage in SH-SY5Y cells (CCK-8); assay type: cell-based, human; conditions: for EC50: Homo sapiens
# Protocol: To mimic ischemic conditions in vitro, cells were washed with PBS and then cultured for 2.5 h at 37 °C in glucose-free medium under anaerobic conditions (5% hydrogen, 90% nitrogen, and 5% carbon dioxide). OGD process was terminated by transferring cells back to normal glucose-containing medium under normoxic conditions (5% CO₂, 37 °C) and maintained for 24 h.
# In the administration group, cells were exposed for 12 h with Cpd.51 prior to OGD. OGD lasted for 2.5 h and the reperfusion lasted for 24 h before the experiment was concluded. Subsequently, cell viability was determined using the cell counting kit-8 (CCK-8, C0039, Beyotime, China). In the experiment to explore the treatment time window, the only difference was the timing of the Cpd.51 treatment, while all other procedures remained unchanged.
# Hek-293T cells were transiently transfected, using Lipofectamine™ 3000 and P3000™ reagent (L3000075, Invitrogen, USA) according to the manufacturer's instructions, with the wild-type, point-mutant and double-mutations constructs of Keap1, DHRS3 or Nrf2 (each at 0.5 ng/μL), respectively. Similarly, to promote the expression of the DHRS3 gene, a DHRS3 expression plasmids (0.5 ng/μL) was transfected as well as the corresponding negative controls into SH-SY5Y cells for 6 h, and further cultured with fresh medium for 18 h according to the manufacturer's instructions.
# [2] = Pharmacokinetics in male rats (LC-MS/MS); assay type: in vivo; conditions: SD, rat, plasma, iv, 5 mg/kg
# Protocol: Male SD rats were intravenous injection with Cpd.51, blood and brain tissues were collected 15 min, 1 h, 4 h, 6 h, 8 h and 24 h after drug administration. Samples were measured by a Shimadzu chromatography system (Shimadzu, Kyoto, Japan) coupled with an AB Sciex triple quadrupole 4500 mass spectrometer (SCIEX Triple Quad™ 4500 LC-MS/MS, Applied Biosystems Sciex, Ontario, Canada) using Analyst 1.4.2 software. A HPLC column (ACQUITY UPLC BEH C18, 2.1 × 50 mm, 1.7 μm) were used. Protein precipitation method was used for detection: 50 μL plasma sample or brain homogenate sample were added with 200 μL acetonitrile containing internal standard for precipitation, then vortexed for 3 min. The supernatant was injected into system for analysis after centrifugation.
# [3] = Microsomal metabolic stability, human; assay type: in vitro ADME; conditions: human liver microsomes
# Protocol: The liver microsomal incubation system comprised human, dog, or rat liver microsomal protein (0.75 mg/mL), nicotinamide adenine dinucleotide phosphate (NADPH) generation system, potassium phosphate buffer (0.1 M, pH 7.4), substrate, and inhibitor. The assay was conducted by first preparing a potassium phosphate buffer. Compounds and liver microsomes were then diluted and pre-incubated at 37 °C before initiating the reaction with NADPH. Aliquots were quenched with acetonitrile containing internal standard at specified time points. After sample processing (shaking and centrifugation), the supernatants were analyzed by LC-MS/MS to determine metabolic stability.
compound,measurement,setting,value
CC1(C)CCC2(C(=O)NO)CCC3(C)C(C(=O)C=C4C5(C)C=C(C#N)C(=O)C(C)(C)C5CCC43C)C2C1 (stereo not shown) [Cpd.51],half-life,"[1]; 30 mg/kg, i.g. (oral)",6.36 h
same,half-life,"[1]; iv, 5 mg/kg",1.49 ± 0.31 h
same,AUC(0-t),"[1]; po, 30 mg/kg, i.g.",685 ± 111 ng·h/mL
same,Cmax,"[1]; po, 30 mg/kg, i.g.",124 ± 37 ng/mL
same,MRT last,"[1]; po, 30 mg/kg, i.g.",5.17 ± 0.72 h
same,bioavailability,"[1]; po, 30 mg/kg, i.g., read-out: F (oral bioavailability)",11.5%
same,"Morris water maze, spatial learning and memory",tMCAO rats,only a modest capacity to improve these cognitive functions
same,"body weight and mNSS scores, long-term",tMCAO rats,significantly improved body weight and mNSS scores
same,mortality after tMCAO,tMCAO rats,reduced mortality
same,"corner, inverted screen, Y maze and open field tests",tMCAO rats; vs model group,"exhibited improvements in neurological deficits, motor abilities, and spatial working and reference memory"
same,OGD/R damage when administered at different time points,"SH-SY5Y cells; 100 nM, CCK-8",consistently alleviated OGD/R damage
same,EC50,"SH-SY5Y cells; SH-SY5Y, DHRS3-OE (DHRS3 overexpression plasmid), read-out: EC50 of cytoprotection against OGD/R",183 nM
same,EC50,"SH-SY5Y cells; SH-SY5Y, NC-OE, read-out: EC50 of cytoprotection against OGD/R",53 nM
same,EC50,SH-SY5Y cells; read-out: EC50 against OGD/R damage,19.7 nM
same,AUC(0-t),[2],991 ± 70 ng·h/mL
same,C0,[2],3410 ± 45 ng/mL
same,Cmax,[2],2120 ± 75 ng/mL
same,MRT last,[2],0.843 ± 0.054 h
same,clearance,"[2]; i.v., read-out: CL_obs (converted)",83.5 mL/min/kg
same,"Remainig (%, t = 60 min)",[3],28.9%
same,CLint scaled,"[3]; human, pH 7.4",34 mL/min/kg
same,half-life,"[3]; human, pH 7.4",0.612 h
